Source: patent US7816410B2, “Pesticidal compositions” (priority 2003, dated 2010)

Legend:
Type in all cases: in vivo
Conditions in all cases: 15 gai/hL
[1] = system: glasshouse whitefly (Trialeurodes vaporariorum); test: Whitefly ovicide protectant test
Description: (§1) The aim of this study was to determine the efficacy of the compositions of the invention on separate life stages of the glasshouse whitefly (Trialeurodes vaporariorum). Three studies were undertaken, the first to determine the efficacy of the composition of the invention as an ovicide in both protectant and curative treatments. The following composition (Composition B) was prepared: All treatments were applied to tobacco plants (var. Tobacco nicotiana) using a hand-held atomiser (CEME-984), applied to both surfaces of the leaf, to incipient run-off. The composition was applied at 5000, 1000, 200, 100 and 50 mL product/hL, Imidacloprid (reference item) was applied at 15 gai/hL and controls were sprayed with deionised water only. Three replicate plants were sprayed for each treatment. The treated plants were maintained in a controlled environment room at 22.9-34.4° C., with lighting on a 16 h light/8 h dark cycle. Light intensity was recorded as 870-1464 lux. Relative humidity was recorded as being between 25.1-85.2%. For the ovicide test, plants were treated (both infested and uninfested with eggs). For the curative test, leaf discs were taken and egg numbers counted. For the protectant test, treated plants were infested after treatment then leaf discs taken with known numbers of eggs. […]

[2] = system: glasshouse whitefly (Trialeurodes vaporariorum); test: Whitefly ovicide curative test
Description: as §1

[3] = system: glasshouse whitefly (Trialeurodes vaporariorum); test: Whitefly nymph curative test
From the text: The aim of this study was to determine the efficacy of the compositions of the invention on separate life stages of the glasshouse whitefly (Trialeurodes vaporariorum).
A second test was to determine the efficacy of composition B as a curative treatment against whitefly nymphs and the third test was to determine the effects of the composition as a (repellent) protectant spray against whitefly adults.
All treatments were applied to tobacco plants (var. Tobacco nicotiana) using a hand-held atomiser (CEME-984), applied to both surfaces of the leaf, to incipient run-off. The composition was applied at 5000, 1000, 200, 100 and 50 mL product/hL, Imidacloprid (reference item) was applied at 15 gai/hL and controls were sprayed with deionised water only.
Three replicate plants were sprayed for each treatment. The treated plants were maintained in a controlled environment room at 22.9-34.4° C., with lighting on a 16 h light/8 h dark cycle. Light intensity was recorded as 870-1464 lux. Relative humidity was recorded as being between 25.1-85.2%.
For the curative nymph test, leaves with nymphs 7-12 days old were treated and assessments of mortality made at 4, 7 and 10 days after application.

[4] = system: glasshouse whitefly (Trialeurodes vaporariorum); test: Whitefly adult repellence (protectant) test
From the text: The aim of this study was to determine the efficacy of the compositions of the invention on separate life stages of the glasshouse whitefly (Trialeurodes vaporariorum). A second test was to determine the efficacy of composition B as a curative treatment against whitefly nymphs and the third test was to determine the effects of the composition as a (repellent) protectant spray against whitefly adults. All treatments were applied to tobacco plants (var. Tobacco nicotiana) using a hand-held atomiser (CEME-984), applied to both surfaces of the leaf, to incipient run-off. The composition was applied at 5000, 1000, 200, 100 and 50 mL product/hL, Imidacloprid (reference item) was applied at 15 gai/hL and controls were sprayed with deionised water only. Three replicate plants were sprayed for each treatment. The treated plants were maintained in a controlled environment room at 22.9-34.4° C., with lighting on a 16 h light/8 h dark cycle. Light intensity was recorded as 870-1464 lux. Relative humidity was recorded as being between 25.1-85.2%. The adult protectant test, assessed the numbers of alive adults on treated leaves after immersion in an adult whitefly infested chamber, 15 and 18 days after application.

Question: Which results are given for `O=[N+]([O-])NC1=NCCN1Cc1ccc(Cl)nc1` [Imidacloprid]?
Answer: percentage whitefly egg hatch ([1]; 1 DAA): 0.0%; percentage whitefly egg hatch ([1]; 3 DAA): 0.0%; percentage whitefly egg hatch ([1]; 7 DAA): 0.0%; percentage whitefly egg hatch ([2]; 1 DAA): 0.0%; percentage whitefly egg hatch ([2]; 3 DAA): 75.2%; percentage whitefly egg hatch ([2]; 7 DAA): 91.4%; percentage whitefly nymph mortality ([3]; 4 DAA): 100.0%; percentage whitefly nymph mortality ([3]; 7 DAA): 100.0%; percentage whitefly nymph mortality ([3]; 10 DAA): 100.0%; number of adult whitefly per leaf ([4]; 15 DAA): 0; number of adult whitefly per leaf ([4]; 18 DAA): 0
